{"source": "patent US9648880B2", "about": "“Antifungal agents and uses thereof” (University of Massachusetts, priority 2012, dated 2017)", "test_system": "Cryptococcus gatti", "assay": "Cryptococcus proliferation", "format": "cell-based", "conditions": "50 μM and 100 μM; 37° C., 18 hours", "method": "FIGS. 27A and 27B. Compound #4 inhibits proliferation of Cryptococcus gatti.\nCompound #4 was also tested for its inhibitory effect on the growth of Cryptococcus gatti. Cryptococcus cells were incubated at 37° C. in unsupplemented RPMI tissue culture media (+Glutamine−Phenol Red (Gibco #11835, Life Technologies, Grand Island, N.Y.; “RPMI”) or RPMI tissue culture media supplemented with 100 U/ml Penicillin/100 ug/ml Streptomycin (Gibco 100× Pen/Strep #151500-122), 1 mM NaPyruvate, and 10 mM HEPES pH 7.0 (“Af medium”) in the presence of 1% DMSO (control), 50 μM compound #4, or 100 μM compound #4, and cell numbers were counted after 18 hours. The assay was also performed with an untreated control.", "data": [{"smiles": "Cc1ccc(C(=O)N2CCN(c3ccc([N+](=O)[O-])cc3)CC2)cc1Cl", "note": "[Compound 4]", "values": [{"measurement": "proliferation (cell numbers)", "result": "inhibited proliferation of Cryptococcus gatti at both concentrations tested"}]}]}
